# The source made the active and inactive calls.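 How the source made its calls: active means IC50 below 50 µM against PP5; inactive means the rest.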
# Target: Serine/threonine-protein phosphatase 5 (Homo sapiens) (UniProt P53041)
# Assay: human PP5 catalytic domain inhibitor potency – biochemical, radiolabel, glycogen phosphorylase substrate, powder samples, selectivity assay for PP1 inhibitor project, late-stage follow-up (AID 652111)
# Details: recombinant PP5c, 32P/33P phosphorylase dephosphorylation, scintillation
# Sequence of Serine/threonine-protein phosphatase 5 (Homo sapiens) (P53041 whole entry, looked up, the tested form may be a part): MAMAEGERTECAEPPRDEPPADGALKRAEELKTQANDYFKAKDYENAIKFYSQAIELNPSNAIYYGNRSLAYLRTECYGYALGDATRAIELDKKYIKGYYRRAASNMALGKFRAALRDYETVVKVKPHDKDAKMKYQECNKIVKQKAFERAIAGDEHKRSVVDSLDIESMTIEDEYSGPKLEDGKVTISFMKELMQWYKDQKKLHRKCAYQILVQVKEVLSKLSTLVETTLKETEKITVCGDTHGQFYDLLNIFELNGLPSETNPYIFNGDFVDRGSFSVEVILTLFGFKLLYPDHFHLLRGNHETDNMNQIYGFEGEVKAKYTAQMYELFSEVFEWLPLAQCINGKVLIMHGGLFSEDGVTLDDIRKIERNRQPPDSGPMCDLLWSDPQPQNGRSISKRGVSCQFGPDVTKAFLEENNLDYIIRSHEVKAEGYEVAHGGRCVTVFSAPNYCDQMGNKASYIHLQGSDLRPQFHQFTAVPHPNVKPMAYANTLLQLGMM
row,Compound,IC50
1,CCOC(=O)c1sc2nc3c(SCC(=O)O)cc(C(=O)c4cc(F)ccc4O)cn3c(=O)c2c1C,< 50 µM
2,COc1ccc(NC(=O)C2C3CCC(O3)C2C(=O)O)c(OC)c1 (stereo not given),4.16 µM
3,CN1CCN(C(c2ccccn2)c2cc(Cl)c3cccnc3c2O)CC1 (stereo not given),> 50 µM (inactive)
4,CCn1c2ccccc2c2cc(NC(=O)COC(=O)c3ccc(NC(=O)CC#N)cc3)ccc21,> 50 µM (inactive)
5,N#Cc1c(-c2ccc(Cl)cc2)cc(-c2cccs2)nc1SCC(=O)O,< 50 µM

# — PubChem BioAssay AID652111 (The Scripps Research Institute Molecular Screening Center, 2013)
